Measured values reported in PubChem BioAssay AID248 (DTP/NCI, 2004).
Several values for one entry are separate records, joined by “and”; a condition that tells them apart may be missing. Equal entries are not always repeated. Inconclusive results and toxic doses are left out. Cut-off read from the data, not from the text of the source: active = T/C of 150% or more; inactive = T/C below 125%.

System: L1210 leukemia ip in BDF1 mice, survival T/C
Experiment: NCI In Vivo Anticancer Drug Screen. Data for tumor model L1210 Leukemia (intraperitoneal) in B6D2F1 (BDF1) mice
Settings: endpoint: mean survival time, higher = longer survival
Summary of the method: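 Mice bearing the transplanted tumor received compound or vehicle. Survival of the treated group was divided by that of the vehicle-treated control group to give the ratio.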

[1] = dose: 100.0 mg/kg/injection, schedule: Q01DX009 (ip), vehicle: Klucel (hydroxypropylcellulose) (HPC)
[2] = dose: 200.0 mg/kg/injection, schedule: Q01DX009 (ip), vehicle: Klucel (hydroxypropylcellulose) (HPC)
[3] = dose: 400.0 mg/kg/injection, schedule: Q01DX009 (ip), vehicle: Klucel (hydroxypropylcellulose) (HPC)
[4] = dose: 100.0 mg/kg/injection, schedule: Q01DX009 (ip), vehicle: saline
[5] = dose: 200.0 mg/kg/injection, schedule: Q01DX009 (ip), vehicle: saline
[6] = dose: 400.0 mg/kg/injection, schedule: Q01DX009 (ip), vehicle: saline
[7] = dose: 50.0 mg/kg/injection, schedule: Q01DX009 (ip), vehicle: saline
[8] = dose: 100.0 mg/kg/injection, schedule: Q01DX001 (ip), vehicle: saline
[9] = dose: 100.0 mg/kg/injection, schedule: Q04DX003 (ip), vehicle: saline
[10] = dose: 200.0 mg/kg/injection, schedule: Q01DX001 (ip), vehicle: saline
[11] = dose: 100.0 mg/kg/injection, schedule: Q01DX001 (ip), vehicle: Klucel (hydroxypropylcellulose) (HPC)
[12] = dose: 100.0 mg/kg/injection, schedule: Q04DX003 (ip), vehicle: Klucel (hydroxypropylcellulose) (HPC)
[13] = dose: 200.0 mg/kg/injection, schedule: Q01DX001 (ip), vehicle: Klucel (hydroxypropylcellulose) (HPC)
[14] = dose: 200.0 mg/kg/injection, schedule: Q04DX003 (ip), vehicle: Klucel (hydroxypropylcellulose) (HPC)
[15] = dose: 400.0 mg/kg/injection, schedule: Q01DX001 (ip), vehicle: Klucel (hydroxypropylcellulose) (HPC)
[16] = dose: 400.0 mg/kg/injection, schedule: Q04DX003 (ip), vehicle: Klucel (hydroxypropylcellulose) (HPC)

Measured: T/C

Nc1nc2ncc(CNc3ccc(C(=O)NC(CCC(=O)O)C(=O)O)cc3)nc2c(=O)[nH]1 (stereo not drawn)
inactive: dose: 1.6 mg/kg/injection, schedule: Q01DX009 (ip), vehicle: saline with Tween-80 93 % of control and 98 % of control | dose: 3.2 mg/kg/injection, schedule: Q01DX009 (ip), vehicle: saline with Tween-80 101 % of control and 109 % of control | dose: 6.3 mg/kg/injection, schedule: Q01DX009 (ip), vehicle: saline with Tween-80 93 % of control and 94 % of control | dose: 6.95 mg/kg/injection, schedule: Q01DX Z (ip), vehicle: carboxymethylcellulose (CMC) 96 % of control | dose: 12.5 mg/kg/injection, schedule: Q01DX009 (ip), vehicle: saline with Tween-80 101 % of control and 102 % of control | dose: 12.5 mg/kg/injection, schedule: Q04DX002 (ip), vehicle: saline with Tween-80 97 % of control and 100 % of control | dose: 13.9 mg/kg/injection, schedule: Q01DX Z (ip), vehicle: carboxymethylcellulose (CMC) 103 % of control | dose: 25.0 mg/kg/injection, schedule: Q01DX009 (ip), vehicle: saline with Tween-80 93 % of control and 100 % of control | dose: 25.0 mg/kg/injection, schedule: Q04DX002 (ip), vehicle: saline with Tween-80 97 % of control and 91 % of control | dose: 27.8 mg/kg/injection, schedule: Q01DX Z (ip), vehicle: carboxymethylcellulose (CMC) 101 % of control | dose: 50.0 mg/kg/injection, schedule: Q01DX009 (ip), vehicle: saline with Tween-80 98 % of control and 111 % of control | dose: 50.0 mg/kg/injection, schedule: Q04DX002 (ip), vehicle: saline with Tween-80 99 % of control and 100 % of control | dose: 55.6 mg/kg/injection, schedule: Q01DX Z (ip), vehicle: carboxymethylcellulose (CMC) 97 % of control | dose: 100.0 mg/kg/injection, schedule: Q04DX002 (ip), vehicle: saline with Tween-80 99 % of control and 102 % of control | dose: 200.0 mg/kg/injection, schedule: Q04DX002 (ip), vehicle: saline with Tween-80 103 % of control

COc1ccc(CN2CCCN(Cc3ccc(OC)cc3OC)C2c2ccc(N(CCCl)CCCl)cc2)c(OC)c1
inactive: dose: 50.0 mg/kg/injection, schedule: Q01DX001 (ip), vehicle: carboxymethylcellulose (CMC) 106 % of control | dose: 100.0 mg/kg/injection, schedule: Q01DX001 (ip), vehicle: carboxymethylcellulose (CMC) 101 % of control | dose: 200.0 mg/kg/injection, schedule: Q01DX001 (ip), vehicle: carboxymethylcellulose (CMC) 115 % of control | dose: 400.0 mg/kg/injection, schedule: Q01DX001 (ip), vehicle: carboxymethylcellulose (CMC) 106 % of control

Cc1ccc(S(=O)(=O)N/N=C2\CCCC3CC23C)cc1 (stereo not drawn)
inactive: dose: 75.0 mg/kg/injection, schedule: Q04DX002 (ip), vehicle: Klucel (hydroxypropylcellulose) (HPC) 93 % of control | dose: 150.0 mg/kg/injection, schedule: Q04DX002 (ip), vehicle: Klucel (hydroxypropylcellulose) (HPC) 93 % of control | dose: 300.0 mg/kg/injection, schedule: Q04DX002 (ip), vehicle: Klucel (hydroxypropylcellulose) (HPC) 104 % of control

O=C(COc1ccccc1)Nc1ccc(Cl)cc1
inactive: [1] 89 % of control | [2] 95 % of control | [3] 90 % of control

CCC(=O)OC1CC2(C)C(=CC1=O)CCC1C2CCC2(C)C(OC(=O)CC)CCC12 (stereo not drawn)
inactive: [4] 97 % of control | [5] 96 % of control | [6] 96 % of control

COc1cc(OC)c(NC(=O)Nc2cc([N+](=O)[O-])ccc2C)cc1Cl
inactive: dose: 100.0 mg/kg/injection, schedule: Q04DX002 (ip), vehicle: Klucel (hydroxypropylcellulose) (HPC) 97 % of control | dose: 200.0 mg/kg/injection, schedule: Q04DX002 (ip), vehicle: Klucel (hydroxypropylcellulose) (HPC) 108 % of control | dose: 400.0 mg/kg/injection, schedule: Q04DX002 (ip), vehicle: Klucel (hydroxypropylcellulose) (HPC) 114 % of control

O=S1(=O)C=C(Cl)C(Cl)C1 (stereo not drawn)
inactive: dose: 25.0 mg/kg/injection, schedule: Q01DX009 (ip), vehicle: saline 93 % of control | [7] 86 % of control | dose: 50.0 mg/kg/injection, schedule: Q04DX003 (ip), vehicle: saline 95 % of control | [8] 93 % of control | [9] 92 % of control | [10] 102 % of control

CS(=O)(=O)OC1CCCCC1Sc1ccc(Br)cc1 (stereo not drawn)
inactive: [11] 103 % of control | [12] 101 % of control | [13] 101 % of control | [14] 101 % of control | [15] 101 % of control | [16] 106 % of control

COc1cccc2c1C(=O)c1c(O)c3c(c(O)c1C2=O)C[C@@](O)(/C(C)=N/NC(N)=S)C[C@@H]3OC1CC(N)C(O)C(C)O1 (stereo partly drawn)
inactive: dose: 0.25 mg/kg/injection, schedule: Q04DX003 (ip), vehicle: water 102 % of control | dose: 0.5 mg/kg/injection, schedule: Q04DX003 (ip), vehicle: water 110 % of control | dose: 1.0 mg/kg/injection, schedule: Q01DX009 (ip), vehicle: water 121 % of control | dose: 1.0 mg/kg/injection, schedule: Q04DX003 (ip), vehicle: water 107 % of control | dose: 2.0 mg/kg/injection, schedule: Q01DX009 (ip), vehicle: water 119 % of control | dose: 2.0 mg/kg/injection, schedule: Q04DX003 (ip), vehicle: water 104 % of control | dose: 4.0 mg/kg/injection, schedule: Q04DX003 (ip), vehicle: water 114 % of control | dose: 7.0 mg/kg/injection, schedule: Q04DX003 (ip), vehicle: water 122 % of control | dose: 8.0 mg/kg/injection, schedule: Q04DX003 (ip), vehicle: water 107 % of control | dose: 10.6 mg/kg/injection, schedule: Q04DX003 (ip), vehicle: water 120 % of control | dose: 24.0 mg/kg/injection, schedule: Q04DX003 (ip), vehicle: water 122 % of control | dose: 32.0 mg/kg/injection, schedule: Q01DX009 (ip), vehicle: water 124 % of control

CSc1ccc(NC(=O)Oc2ccccc2C(=O)OCc2ccccc2)cc1
inactive: dose: 100.0 mg/kg/injection, schedule: Q01DX009 (ip), vehicle: gum acacia 95 % of control | dose: 200.0 mg/kg/injection, schedule: Q01DX009 (ip), vehicle: gum acacia 100 % of control | dose: 400.0 mg/kg/injection, schedule: Q01DX009 (ip), vehicle: gum acacia 102 % of control

CCOC(=O)C1=C(C)NC(C)=C(C(=O)OCC)C1c1ccccc1Cl
inactive: [9] 97 % of control | dose: 200.0 mg/kg/injection, schedule: Q04DX003 (ip), vehicle: saline 117 % of control | dose: 400.0 mg/kg/injection, schedule: Q04DX003 (ip), vehicle: saline 87 % of control

CCOc1ccc(NC(=O)Nc2cccc(Cl)c2)cc1
inactive: [1] 103 % of control | [12] 95 % of control | [14] 103 % of control | [3] 87 % of control | [16] 100 % of control

C=C(C)C1CC=C(C=O)CC1 (stereo not drawn)
inactive: [11] 93 % of control | [1] 94 % of control | [12] 101 % of control | [13] 92 % of control | [2] 109 % of control | [14] 98 % of control | [15] 92 % of control | [16] 101 % of control

Cc1ccc(NC(=O)Nc2ccccc2C(F)(F)F)cc1NC(=O)Nc1ccccc1C(F)(F)F
inactive: dose: 100.0 mg/kg/injection, schedule: Q01DX009 (ip), vehicle: saline with Tween-80 92 % of control | dose: 200.0 mg/kg/injection, schedule: Q01DX009 (ip), vehicle: saline with Tween-80 90 % of control | dose: 400.0 mg/kg/injection, schedule: Q01DX009 (ip), vehicle: saline with Tween-80 92 % of control

COC1OC(CN(CCOS(C)(=O)=O)S(C)(=O)=O)C2OC(C)(C)OC12 (stereo not drawn)
inactive: [7] 95 % of control | dose: 50.0 mg/kg/injection, schedule: Q04DX003 (ip), vehicle: Klucel (hydroxypropylcellulose) (HPC) 116 % of control | [4] 97 % of control | [12] 102 % of control | [5] 95 % of control | [14] 121 % of control | [6] 95 % of control | [16] 104 % of control

COc1ccc(C)cc1NC(=O)Nc1cccc(F)c1
inactive: [1] 106 % of control | [2] 111 % of control | [3] 106 % of control

CN(C)c1ccc([N+](=O)[O-])cc1[N+](=O)[O-]
inactive: dose: 100.0 mg/kg/injection, schedule: Q01DX001 (ip), vehicle: other 111 % of control | dose: 200.0 mg/kg/injection, schedule: Q01DX001 (ip), vehicle: other 101 % of control

CC1(C(=O)O)CCCC1C(CCC(=O)O)C(=O)O (stereo not drawn)
inactive: [8] 97 % of control | [10] 95 % of control | dose: 400.0 mg/kg/injection, schedule: Q01DX001 (ip), vehicle: saline 92 % of control
